Among the data in the Kinase Knowledgebase extract (Sharma et al. 2016) are IC50 values, retold here.

This assay addresses PIK3CG (human) (UniProt P48736). The experiment in a line: Assessment of PIK3CG Kinase Activity.

One may read the IC50 as the concentration that gives 50% inhibition. Read a low IC50 as higher potency.

PIK3CG (human), sequence (P48736 whole entry, looked up): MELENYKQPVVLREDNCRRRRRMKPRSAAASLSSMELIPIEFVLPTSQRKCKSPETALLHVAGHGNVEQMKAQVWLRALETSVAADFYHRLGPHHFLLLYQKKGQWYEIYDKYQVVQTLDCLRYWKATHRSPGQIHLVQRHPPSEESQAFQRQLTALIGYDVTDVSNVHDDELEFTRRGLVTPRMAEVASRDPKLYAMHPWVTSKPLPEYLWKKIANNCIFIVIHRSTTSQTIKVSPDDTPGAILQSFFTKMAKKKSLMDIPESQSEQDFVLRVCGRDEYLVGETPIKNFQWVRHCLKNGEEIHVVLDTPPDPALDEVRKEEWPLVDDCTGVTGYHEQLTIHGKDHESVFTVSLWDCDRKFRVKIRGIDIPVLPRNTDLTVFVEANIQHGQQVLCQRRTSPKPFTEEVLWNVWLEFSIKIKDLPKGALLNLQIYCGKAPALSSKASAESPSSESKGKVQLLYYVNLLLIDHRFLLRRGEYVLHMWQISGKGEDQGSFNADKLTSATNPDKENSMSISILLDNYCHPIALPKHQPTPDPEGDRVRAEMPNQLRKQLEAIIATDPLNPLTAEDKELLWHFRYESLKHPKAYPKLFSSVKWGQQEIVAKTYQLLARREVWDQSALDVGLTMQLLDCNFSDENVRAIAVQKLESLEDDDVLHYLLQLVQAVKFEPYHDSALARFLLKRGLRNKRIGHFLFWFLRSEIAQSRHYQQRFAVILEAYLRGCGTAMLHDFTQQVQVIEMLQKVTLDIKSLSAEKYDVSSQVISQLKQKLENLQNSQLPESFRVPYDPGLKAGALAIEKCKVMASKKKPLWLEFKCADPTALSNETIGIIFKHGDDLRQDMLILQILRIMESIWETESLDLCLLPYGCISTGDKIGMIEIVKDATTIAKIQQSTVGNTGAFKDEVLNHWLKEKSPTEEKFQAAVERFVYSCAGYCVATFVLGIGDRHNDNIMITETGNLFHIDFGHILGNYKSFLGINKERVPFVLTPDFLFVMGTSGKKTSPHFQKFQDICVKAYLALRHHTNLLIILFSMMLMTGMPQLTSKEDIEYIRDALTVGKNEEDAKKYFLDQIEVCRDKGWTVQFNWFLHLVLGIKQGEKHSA

Regarding `CC(=O)Nc1nc2c(s1)-c1c(cnn1-c1ccc(C(=O)NCC3OCCO3)cc1)CC2`, the IC50 was less than 800 nM.

As for `COC(=O)c1nn(-c2c(Cl)cccc2Cl)c2c1CCc1nc(NC(C)=O)sc1-2`, the IC50 was less than 800 nM.

In turn, `C=C1CCN(C(=O)c2ccc(-n3ncc4c3-c3sc(NC(C)=O)nc3CC4)cc2)CC1` gave an IC50 of less than 800 nM.

`CN1CCN(C(=O)Nc2nc3c(s2)-c2nc(-c4ccccc4)ncc2CC3)CC1` returned an IC50 of less than 800 nM.

For `CC(=O)Nc1nc2c(s1)-c1c(cnn1-c1ccc(F)cc1F)CC2`, the IC50 was less than 800 nM.

The compound `CC(=O)Nc1nc2c(s1)-c1c(cnn1C(=O)C1CC1)CC2` had an IC50 of less than 800 nM.

Compound `CC(=O)Nc1nc2c(s1)-c1c(cnn1-c1cc(F)ccc1C)CC2` showed an IC50 of less than 800 nM.

Compound `CC(=O)Nc1nc2c(s1)-c1c(cnn1-c1ccc(C(=O)N[C@H]3CC[C@H](N4CCN(S(C)(=O)=O)CC4)CC3)cc1)CC2` returned an IC50 of less than 800 nM.

On to `CC(=O)Nc1nc2c(s1)-c1c(cnn1-c1ccc(CC(=O)N(C)Cc3ccccn3)cc1)CC2`, for which the IC50 was less than 800 nM.

The compound `CC(=O)Nc1nc2c(s1)-c1c(cnn1-c1ccc(CC(=O)NCCCN(C)C)cc1)CC2` had an IC50 of less than 800 nM.

Compound `CC(=O)Nc1nc2c(s1)-c1c(cnn1-c1ccc(S(=O)(=O)N(C)CCN(C)C)cc1)CC2` had an IC50 of less than 800 nM.

`CC(=O)Nc1nc2c(s1)-c1c(c(-c3ccco3)nn1-c1ccc(C(=O)NC3CCN(C)CC3)cc1Cl)CC2` yielded an IC50 of less than 800 nM.

As for `CNS(=O)(=O)c1ccc(-n2ncc3c2-c2sc(NC(C)=O)nc2CC3)cc1`, the IC50 was less than 800 nM.

In turn, `O=C(NCCN1CCOCC1)Nc1nc2c(s1)-c1c(cnn1-c1ccccc1)CC2` came in with an IC50 of less than 800 nM.

In turn, `CC(=O)Nc1nc2c(s1)-c1c(c(C(F)(F)F)nn1-c1ccccc1)CC2` showed an IC50 of less than 800 nM.

For `CN(C)CCCC(=O)Nc1nc2c(s1)-c1c(cnn1-c1ccccc1)CC2`, the IC50 was less than 800 nM.

As for `CC(=O)Nc1nc2c(s1)-c1c(c(-c3ccccc3)nn1-c1ccccc1F)CC2`, the IC50 is less than 800 nM.

The compound `CC(=O)Nc1nc2c(s1)-c1c(cnn1-c1ccc(CC(=O)NCc3nc4ccccc4[nH]3)cc1)CC2` gave an IC50 of less than 800 nM.

On to `CC(=O)Nc1nc2c(s1)-c1c(cnn1-c1ccc(C(=O)NC3CCCC3)cc1)CC2`, for which the IC50 is less than 800 nM.

Regarding `CC(=O)Nc1nc2c(s1)-c1c(cnn1-c1ccc(C(=O)N(C)CC#N)cc1)CC2`, the IC50 was less than 800 nM.

`CC(=O)Nc1nc2c(s1)-c1c(c(-c3cccnc3)nn1-c1ccccc1Cl)CC2`: the IC50 is less than 800 nM.

Consider `CC(=O)Nc1nc2c(s1)-c1c(cnn1-c1cccc(C)c1)CC2`, for which the IC50 is less than 800 nM.

`CC(=O)Nc1nc2c(s1)-c1c(cnn1-c1ccc(CC(=O)N3CCCC(=O)CC3)cc1)CC2` came in with an IC50 of less than 800 nM.

In the case of `CCCN(CC)C(=O)Cc1ccc(-n2ncc3c2-c2sc(NC(C)=O)nc2CC3)cc1`, the IC50 is less than 800 nM.

`CC(=O)Nc1nc2c(s1)-c1nc(C(C)(C)C)ncc1CC2`: the IC50 is less than 800 nM.

`CC(=O)Nc1nc2c(s1)-c1c(cnn1-c1ccccc1Cl)CC2` had an IC50 of less than 800 nM.

For the compound `CC(=O)Nc1nc2c(s1)-c1nn(-c3ccccc3F)c(-c3ccco3)c1CC2`, the IC50 was less than 800 nM.

As for `CCN(CCO)C(=O)c1ccc(-n2ncc3c2-c2sc(NC(C)=O)nc2CC3)cc1`, the half-inhibitory concentration (IC50) was less than 800 nM.

As to `CC(=O)Nc1nc2c(s1)-c1c(c(-c3ccco3)nn1-c1ccccc1F)CC2`, the IC50 is less than 800 nM.

Turning to `CC(=O)Nc1ccc2c(c1)-c1sc(NC(C)=O)nc1CC2`, the IC50 was less than 800 nM.

Compound `CC(=O)Nc1nc2c(s1)-c1nn(C(=O)C(C)C)cc1CC2` showed an IC50 of less than 800 nM.

In the case of `CC(=O)Nc1nc2c(s1)-c1c(cnn1-c1ccc(CC(=O)NCc3nc4ccccc4n3C)cc1)CC2`, the IC50 was less than 800 nM.

In the case of `CC(=O)Nc1nc2c(s1)-c1nc(-c3ccc(C(=O)N(C)C)cc3)ncc1CC2`, the IC50 is less than 800 nM.

`CC(=O)Nc1nc2c(s1)-c1c(cnn1-c1ccccc1C)CC2`: the IC50 is less than 800 nM.

For the compound `CC(=O)Nc1nc2c(s1)-c1c(cnn1-c1ccc(C(=O)NCc3cccc(N4CCNC4=O)c3)cc1)CC2`, the concentration for half-maximal inhibition (IC50) was less than 800 nM.

In the case of `O=C(Nc1nc2c(s1)-c1nc(-c3ccccc3)ncc1CC2)N1CCOCC1`, the IC50 is less than 800 nM.

As to `CCN(CCO)C(=O)c1nn(-c2ccccc2)c2c1CCc1nc(NC(C)=O)sc1-2`, the IC50 was less than 800 nM.

`COCc1nn(-c2ccccc2C(F)(F)F)c2c1CCc1nc(NC(C)=O)sc1-2`: the IC50 was less than 800 nM.

Turning to `CC(=O)Nc1nc2c(s1)-c1c(cnn1-c1ccc(C)cc1)CC2`, the IC50 is less than 800 nM.

As for `CC(=O)Nc1nc2c(s1)-c1c(c([C@H]3CCCO3)nn1-c1ccccc1)CC2`, the IC50 was less than 800 nM.

The compound `CC(=O)Nc1nc2c(s1)-c1c(cnn1-c1ccc(C(=O)N[C@@H](Cc3ccc(O)cc3)C(N)=O)cc1Cl)CC2` showed an IC50 of less than 800 nM.

Take `CC(=O)Nc1nc2c(s1)-c1c(cnn1-c1ccc(C(=O)N[C@H]3CC[C@H](N(C)C)CC3)cc1)CC2`: the IC50 is less than 800 nM.

`CC(=O)Nc1nc2c(s1)-c1nc(C(F)(F)F)ncc1CC2` gave an IC50 of less than 800 nM.

In turn, `CC(=O)Nc1nc2c(s1)-c1c(cnn1-c1ccc(C(=O)NCCCCCCNC(=O)Cc3ccccc3)cc1)CC2` gave an IC50 of less than 800 nM.

Take `CC(=O)Nc1nc2c(s1)-c1c(cnn1-c1ccc(C(=O)N(C)CC(C)O)cc1)CC2` (configuration not stated): the IC50 was less than 800 nM.

Consider `CC(=O)Nc1nc2c(s1)-c1c(cnn1-c1ccc(C(=O)N3CCC(N4CCCCC4)CC3)cc1)CC2`, for which the IC50 is less than 800 nM.

With `COCc1nn(-c2ccccc2Cl)c2c1CCc1nc(NC(C)=O)sc1-2`, the half-inhibitory concentration (IC50) was less than 800 nM.

As for `CC(=O)Nc1nc2c(s1)-c1c(c(-c3ccco3)nn1-c1ccc(Br)cc1C(F)(F)F)CC2`, the IC50 is less than 800 nM.

The compound `CC(=O)Nc1nc2c(s1)-c1nn(C3C=CCCC3)cc1CC2` (configuration not stated) came in with an IC50 of less than 800 nM.

`CC(=O)Nc1nc2c(s1)-c1c(cnn1-c1ccc(C(=O)NC(C)CO)cc1)CC2` (configuration not stated): the IC50 was less than 800 nM.

Compound `CC(=O)Nc1nc2c(s1)-c1c(cnn1-c1ccc(C(=O)NCCN(C)C)cc1)CC2` displayed an IC50 of less than 800 nM.

For the compound `CN(C)CCN(C)C(=O)Nc1nc2c(s1)-c1c(cnn1-c1ccccc1)C2`, the IC50 is less than 800 nM.

`CC(=O)Nc1nc2c(s1)-c1c(c([C@H]3CCCO3)nn1-c1ccc(C(=O)NCc3ccncc3)cc1Cl)CC2` came in with an IC50 of less than 800 nM.

Regarding `CC(=O)Nc1nc2c(s1)-c1c(cnn1-c1ccc(C(=O)NCCN3CCOCC3)cc1)CC2`, the IC50 is less than 800 nM.

`CC(=O)Nc1nc2c(s1)-c1c(cnn1-c1ccc(C(=O)N[C@H]3CC[C@H](N(Cc4ccccc4)Cc4ccccc4)CC3)cc1)CC2` returned an IC50 of less than 800 nM.

As for `CC(=O)Nc1nc2c(s1)-c1c(cnn1-c1ccc(C(=O)N[C@H](CCC(=O)O)C(N)=O)cc1Cl)CC2`, the IC50 is less than 800 nM.

On to `CC(=O)Nc1nc2c(s1)-c1c(cnn1-c1ccc(CC(=O)NCCC3CCCN3C)cc1)CC2` (configuration not stated), for which the IC50 is less than 800 nM.

Take `COc1ccccc1-n1ncc2c1-c1sc(NC(C)=O)nc1CC2`: the IC50 was less than 800 nM.

`NC(=O)[C@@H]1CCCN1CC(=O)Nc1nc2c(s1)-c1c(cnn1-c1ccccc1)CC2` yielded a 50% inhibitory concentration (IC50) of less than 800 nM.

The compound `CC(=O)Nc1nc2c(s1)-c1c(c(C(C)C)nn1-c1ccc(C(=O)O)cc1Cl)CC2` came in with an IC50 of less than 800 nM.

`CC(=O)Nc1nc2c(s1)-c1c(c(C)nn1-c1ccccc1Cl)CC2` displayed a half-inhibitory concentration (IC50) of less than 800 nM.

`COc1cccc(-c2ncc3c(n2)-c2sc(NC(C)=O)nc2CC3)c1` came in with an IC50 of less than 800 nM.
